“And” between values parts separate entries of the source, which are not always exact repeats. Equal values may be shown once.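 Five concentrations, 48 hours, 96-well plates. Abbreviation: GI50, concentration required for 50% inhibition of growth. TGI: concentration producing complete growth inhibition.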
Columns and labels:
Test in all cases: NCI tumour cell line growth inhibition, 48 h
SNB-78 CNS = tested on: SNB-78 CNS
NCI/ADR-RES ovarian = tested on: NCI/ADR-RES ovarian
MDA-MB-435 = tested on: MDA-MB-435
K-562 leukemia = tested on: K-562 leukemia
SW-620 colon = tested on: SW-620 colon
HOP-92 NSCLC = tested on: HOP-92 NSCLC
786-0 renal = tested on: 786-0 renal
EKVX NSCLC = tested on: EKVX NSCLC
COLO 205 colon = tested on: COLO 205 colon
SNB-75 CNS = tested on: SNB-75 CNS
NCI-H226 lung = tested on: NCI-H226 lung
HL-60(TB) leukemia = tested on: HL-60(TB) leukemia
M14 melanoma = tested on: M14 melanoma
KM12 colon = tested on: KM12 colon
DMS 273 small cell lung = tested on: DMS 273 small cell lung
TK-10 renal = tested on: TK-10 renal
BT-549 breast = tested on: BT-549 breast
SR leukemia = tested on: SR leukemia
MDA-N = tested on: MDA-N
XF 498 CNS = tested on: XF 498 CNS
P388 leukemia = tested on: P388 leukemia
UACC-62 melanoma = tested on: UACC-62 melanoma
IGROV1 ovarian = tested on: IGROV1 ovarian
UACC-257 melanoma = tested on: UACC-257 melanoma
P388/ADR leukemia = tested on: P388/ADR leukemia
SK-MEL-28 melanoma = tested on: SK-MEL-28 melanoma
NCI-H23 lung = tested on: NCI-H23 lung
HOP-18 NSCLC = tested on: HOP-18 NSCLC
MOLT-4 leukemia = tested on: MOLT-4 leukemia
HOP-62 NSCLC = tested on: HOP-62 NSCLC
UO-31 renal = tested on: UO-31 renal
OVCAR-8 ovarian = tested on: OVCAR-8 ovarian
SF-268 CNS = tested on: SF-268 CNS
HT29 colon = tested on: HT29 colon
SNB-19 CNS = tested on: SNB-19 CNS
KM20L2 colon = tested on: KM20L2 colon
MALME-3M melanoma = tested on: MALME-3M melanoma
MCF7 breast = tested on: MCF7 breast
A498 renal = tested on: A498 renal
OVCAR-4 ovarian = tested on: OVCAR-4 ovarian
SK-MEL-2 melanoma = tested on: SK-MEL-2 melanoma
RPMI-8226 leukemia = tested on: RPMI-8226 leukemia
A549 NSCLC = tested on: A549 NSCLC
OVCAR-5 ovarian = tested on: OVCAR-5 ovarian
SN12K1 renal = tested on: SN12K1 renal
DU-145 prostate = tested on: DU-145 prostate
NCI-H460 lung = tested on: NCI-H460 lung
RXF 393 renal = tested on: RXF 393 renal
SK-OV-3 ovarian = tested on: SK-OV-3 ovarian
PC-3 prostate = tested on: PC-3 prostate
SF-539 CNS = tested on: SF-539 CNS
ACHN renal = tested on: ACHN renal
DMS 114 small cell lung = tested on: DMS 114 small cell lung
HCC-2998 colon = tested on: HCC-2998 colon
CCRF-CEM leukemia = tested on: CCRF-CEM leukemia
T-47D breast = tested on: T-47D breast
U251 CNS = tested on: U251 CNS
HCT-15 colon = tested on: HCT-15 colon
OVCAR-3 ovarian = tested on: OVCAR-3 ovarian
LOX IMVI melanoma = tested on: LOX IMVI melanoma
MDA-MB-231 breast = tested on: MDA-MB-231 breast
HCT-116 colon = tested on: HCT-116 colon
NCI-H522 lung = tested on: NCI-H522 lung
SF-295 CNS = tested on: SF-295 CNS
SK-MEL-5 melanoma = tested on: SK-MEL-5 melanoma
M19-MEL melanoma = tested on: M19-MEL melanoma
SN12C renal = tested on: SN12C renal
DLD-1 colon = tested on: DLD-1 colon
CAKI-1 renal = tested on: CAKI-1 renal

CN1CCN(c2ccc3nc(-c4ccc5nc(-c6ccc(O)cc6)[nH]c5c4)[nH]c3c2)CC1
TGI (SNB-78 CNS): 638 µM | TGI (NCI/ADR-RES ovarian): 786 µM | GI50 (MDA-MB-435): 41.7 µM | TGI (MDA-MB-435): 217 µM | GI50 (K-562 leukemia): 12.7 µM and 6.04 µM | TGI (K-562 leukemia): 470 µM | TGI (SW-620 colon): 959 µM | TGI (HOP-92 NSCLC): 169 µM | TGI (786-0 renal): 941 µM | GI50 (EKVX NSCLC): 257 µM | TGI (EKVX NSCLC): 489 µM | GI50 (COLO 205 colon): 6.24 µM and 19.5 µM and 6.78 µM | TGI (COLO 205 colon): 147 µM | TGI (SNB-75 CNS): 619 µM | TGI (NCI-H226 lung): 792 µM | GI50 (HL-60(TB) leukemia): 9.03 µM and 24.3 µM | TGI (HL-60(TB) leukemia): 148 µM | TGI (M14 melanoma): 493 µM | TGI (KM12 colon): 678 µM | TGI (DMS 273 small cell lung): 158 µM | TGI (TK-10 renal): 1300 µM | TGI (BT-549 breast): 715 µM | GI50 (SR leukemia): 4.53 µM | TGI (SR leukemia): 2000 µM | GI50 (MDA-N): 8.77 µM | TGI (MDA-N): 354 µM | TGI (XF 498 CNS): 116 µM | TGI (P388 leukemia): 439 µM | GI50 (UACC-62 melanoma): 14 µM and 86.9 µM and 28 µM | TGI (UACC-62 melanoma): 118 µM | TGI (IGROV1 ovarian): 436 µM | TGI (UACC-257 melanoma): 188 µM | TGI (P388/ADR leukemia): 725 µM | GI50 (SK-MEL-28 melanoma): 18.8 µM | TGI (SK-MEL-28 melanoma): 92.3 µM | TGI (NCI-H23 lung): 531 µM | TGI (HOP-18 NSCLC): 556 µM | GI50 (MOLT-4 leukemia): 37.2 µM and 39.4 µM | TGI (MOLT-4 leukemia): 482 µM | TGI (HOP-62 NSCLC): 1040 µM | GI50 (UO-31 renal): 10.6 µM | TGI (UO-31 renal): 938 µM | GI50 (OVCAR-8 ovarian): 173 µM | TGI (OVCAR-8 ovarian): 539 µM | GI50 (SF-268 CNS): 28.6 µM and 45.4 µM | TGI (SF-268 CNS): 717 µM | TGI (HT29 colon): 295 µM | TGI (SNB-19 CNS): 909 µM | TGI (KM20L2 colon): 1160 µM | GI50 (MALME-3M melanoma): 3.29 µM | TGI (MALME-3M melanoma): 62.5 µM | GI50 (MCF7 breast): 5.33 µM | TGI (MCF7 breast): 422 µM | TGI (A498 renal): 763 µM | TGI (OVCAR-4 ovarian): 609 µM | GI50 (SK-MEL-2 melanoma): 198 µM | TGI (SK-MEL-2 melanoma): 578 µM | GI50 (RPMI-8226 leukemia): 183 µM | TGI (RPMI-8226 leukemia): 648 µM | TGI (A549 NSCLC): 756 µM | TGI (OVCAR-5 ovarian): 679 µM | TGI (SN12K1 renal): 552 µM | TGI (DU-145 prostate): 526 µM | GI50 (NCI-H460 lung): 349 µM | TGI (NCI-H460 lung): 714 µM | TGI (RXF 393 renal): 529 µM | TGI (SK-OV-3 ovarian): 948 µM | TGI (PC-3 prostate): 1150 µM | TGI (SF-539 CNS): 237 µM | TGI (ACHN renal): 666 µM | TGI (DMS 114 small cell lung): 483 µM | TGI (HCC-2998 colon): 1080 µM | GI50 (CCRF-CEM leukemia): 12.9 µM (2×) and 15.4 µM | TGI (CCRF-CEM leukemia): 381 µM | GI50 (T-47D breast): 4.32 µM and 14.2 µM | TGI (T-47D breast): 153 µM | TGI (U251 CNS): 799 µM | TGI (HCT-15 colon): 736 µM | GI50 (OVCAR-3 ovarian): 13.5 µM and 59.5 µM and 10.1 µM | TGI (OVCAR-3 ovarian): 43.1 µM | TGI (LOX IMVI melanoma): 553 µM | TGI (MDA-MB-231 breast): 639 µM | GI50 (HCT-116 colon): 5.66 µM and 30.5 µM | TGI (HCT-116 colon): 512 µM | GI50 (NCI-H522 lung): 4.47 µM and 3.05 µM | TGI (NCI-H522 lung): 65.5 µM and 202 µM | GI50 (SF-295 CNS): 380 µM | TGI (SF-295 CNS): 678 µM | GI50 (SK-MEL-5 melanoma): 97.9 µM | TGI (SK-MEL-5 melanoma): 158 µM | TGI (M19-MEL melanoma): 283 µM | TGI (SN12C renal): 464 µM | TGI (DLD-1 colon): 487 µM | TGI (CAKI-1 renal): 306 µM
